We go through 19 compounds from patent publication JP2014001205A, “動物の寄生虫防除剤” (Nissan Chemical Corp, priority 2012, dated 2014).

Like-named read-outs stand apart in the source and are kept apart here. A value given as a limit tells only on which side of the number the result lay.

Assay [1] concerns American dog tick (Dermacentor variabilis) first nymphs [American dog tick(Dermacentor variabilis)第1若虫]. In words: Efficacy test against American dog tick (Test Example 2), glass container film contact. It is filed as in vivo. Particulars: 96 h, 10μg/cm2, 5 first nymphs (mixed sex), 25℃, 4 days, duplicate, read-out: efficacy (number with abnormal behaviour due to compound / number released × 100).

For assay [2], the system named is cat flea (Ctenocephalides felis) adults [ネコノミ(Ctenocephalides felis)成虫]. In words: Efficacy test against cat flea (Test Example 1), glass container film contact. It is filed as in vivo. The settings on record: 96 h, read-out: efficacy (number of insects with abnormal behaviour due to compound / number released × 100).
The mark [3] stands for this setting: 10μg/cm2, 5 adults (mixed sex), 25℃, 4 days, duplicate.

On to `CCN(C(=O)C=CSC)c1cn(-c2cccnc2)nc1Cl` (single isomer, unassigned) [1−071], for which the pest or weed control at 10 µg/cm2 in assay [1] and in assay [2] (setting [3]) was at least 80% in each case.
As to `CSC[C@@H](C)C(=O)N(C)c1cn(-c2cccnc2)nc1Cl` [1−039(S)−(−)], the pest or weed control at 10 µg/cm2 in assay [1] and in assay [2] (setting [3]) was at least 80% in each case.
Turning to `CCN(C(=O)[C@H](C)CS(C)(=O)=O)c1cn(-c2cccnc2)nc1Cl` [1−050(S)−(+)], the pest or weed control at 10 µg/cm2 in assay [1] and in assay [2] (setting [3]) was at least 80% each time.
As to `CCN(C(=O)CSC)c1cn(-c2cccnc2)nc1Cl` [1−079], the pest or weed control at 10 µg/cm2 in assay [1] and in assay [2] (setting [3]) was at least 80% in each case.
Consider `CCN(C(=O)CS(C)(=O)=O)c1cn(-c2cccnc2)nc1Cl` [1−080], for which the pest or weed control at 10 µg/cm2 in assay [1] and in assay [2] (setting [3]) was at least 80% each time.
Take `CCN(C(=O)COC(C)=O)c1cn(-c2cccnc2)nc1Cl` [1−082]: the pest or weed control at 10 µg/cm2 in assay [1] and in assay [2] (setting [3]) was at least 80% in each case.
For the compound `CCCSC(C)C(=O)N(CC)c1cn(-c2cccnc2)nc1Cl` (stereo not shown) [1−246], the pest or weed control at 10 µg/cm2 in assay [1] and in assay [2] (setting [3]) was at least 80% each time.
Regarding `CCc1nn(-c2cccnc2)cc1NC(=O)OC(C)(C)C` [1−435], the pest or weed control at 10 µg/cm2 in assay [1] and in assay [2] (setting [3]) was at least 80% each time.
For `CCCC(C)C(=O)N(CC)c1cn(-c2cccnc2)nc1Cl` (stereo not shown) [1−483], the pest or weed control at 10 µg/cm2 in assay [1] and in assay [2] (setting [3]) was at least 80% each time.
As for `CNC(=S)Nc1cn(-c2cccnc2)nc1Cl` [1−552], the pest or weed control at 10 µg/cm2 in assay [2] (setting [3]) is at least 80%.
Still for that read-out and setting: for `CC(C)NC(=S)Nc1cn(-c2cccnc2)nc1Cl` [1−554] the value was at least 80%; for `CCN(C(N)=O)c1cn(-c2cccnc2)nc1Cl` [1−572], at least 80%.
`CN(C(=O)NCC(F)(F)F)c1cn(-c2cccnc2)nc1Br` [1−586]: the pest or weed control at 10 µg/cm2 in assay [2] (setting [3]) is at least 80%.
Same read-out and setting: under `CCN(C(=O)NCC(F)(F)F)c1cn(-c2cccnc2)nc1Br` [1−587] stands at least 80%.
On to `O=C(NCCCl)Nc1cn(-c2cccnc2)nc1Cl` [1−593], for which the pest or weed control at 10 µg/cm2 in assay [2] is at least 80%.
Take `C=CCNC(=O)N(CC)c1cn(-c2cccnc2)nc1Cl` [1−595]: the pest or weed control at 10 µg/cm2 in assay [2] (setting [3]) is at least 80%.
As to `CCN(C(=O)C(C)CS(=O)(=O)N(C)C)c1cn(-c2cccnc2)nc1Cl` (stereo not shown) [1−596], the pest or weed control at 10 µg/cm2 in assay [2] (setting [3]) is at least 80%.
On the same count and under the same terms, under `CCSC(C)C(=Nc1cn(-c2cccnc2)nc1Cl)SC` (stereo not shown) [3−006, メチル N−3−クロロ−1−(ピリジン−3−イル)−1H−ピラゾール−4−イル−2−(エチルチオ)プロパンイミドチオエート] stands at least 80%; under `Cc1c(NC(=O)OC(C)(C)C)cnn1-c1cccnc1` [5−001, tert−ブチル 5−メチル−1−(ピリジン−3−イル)−1H−ピラゾール−4−イルカーバメート], at least 80%.
